# Patent publication US11000033B2, “Ketone or oxime compound, and herbicide” (NISSAN CHEMICAL CORPORATION, priority 2014, dated 2021)
# How the values were obtained:
# Format in all cases: in vivo
# [1] = tested on: Echinochloa oryzacola Vasing.; test: Test Example 1: herbicidal activity, application before weed generation in submerged conditions (symbol A); details: application herbicide amount 320 g/ha
# In short: (§1)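 Steps: alluvial soil flooded to 4 cm; weed seeds sown together; rice seedlings (2.5 leaf) transplanted; diluted emulsion applied to water surface the same day as sowing; plants grown at 25–30 °C in greenhouse; herbicidal effect rated on a 0–5 scale at 3 weeks.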
# Scirpus juncoides = test: Test Example 1: herbicidal activity, application before weed generation in submerged conditions (symbol B); details: application herbicide amount 320 g/ha
# In short: as §1
# [2] = tested on: Echinochloa crus-galli var. crus-galli; test: Test Example 3: herbicidal effect by foliage application, Wagner pot (symbol H); details: application herbicide amount 320 g/ha
# In short: (§2)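 Rating at 3 weeks post-spray, by defined criteria. Treatment: emulsion diluted with water to a predetermined amount, applied evenly to foliage of 14-day-old plants raised in alluvial soil flooded 0.1–0.5 cm deep at 25–30 °C, rice co-sown.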
# Leptochloa chinensis = test: Test Example 3: herbicidal effect by foliage application, Wagner pot (symbol D); details: application herbicide amount 320 g/ha
# In short: as §2
# Cyperus difformis = test: Test Example 3: herbicidal effect by foliage application, Wagner pot (symbol E); details: application herbicide amount 320 g/ha
# In short: as §2
# [3] = tested on: directly sowed rice plant; test: Test Example 3: effect on crop by foliage application, Wagner pot (symbol b); details: application herbicide amount 320 g/ha
# In short: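 Plants are raised from seed in flooded paddy conditions: water stands 0.1–0.5 cm over alluvial soil, and the pot is kept in a greenhouse at 25–30 °C. Species sown are barnyardgrass (E. crus-galli var. crus-galli), Leptochloa chinensis, Cyperus difformis and rice.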
# Digitaria ciliaris = test: Test Example 4: herbicidal effect by soil treatment (symbol F); details: 320 g/ha
# In short: (§3)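 Seeds were sown in sterilized diluvial soil, covered with about 1.5 cm of soil, and the soil surface was sprayed with a water-diluted emulsion of the compound at a predetermined rate. Plants grew in a greenhouse at 25° C. to 30° C.; effects were scored visually 3 weeks after application.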
# Alopecurus myosuroides [4] = test: Test Example 4: herbicidal effect by soil treatment (symbol J); details: 320 g/ha
# In short: as §3
# corn = test: Test Example 4: effect on crop by soil treatment (symbol c); details: 320 g/ha
# In short: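 Diluvial soil (sterilized) in boxes; seeds placed spot-wise alongside weed species; ~1.5 cm covering soil. Greenhouse, 25–30° C.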
# rapeseed = test: Test Example 4: effect on crop by soil treatment (symbol g); details: 320 g/ha
# In short: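 Sterilized diluvial soil, spot sowing, ~1.5 cm soil cover; greenhouse 25–30° C.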
# Alopecurus myosuroides [5] = test: Test Example 5: herbicidal effect by foliage application, plastic box (symbol J); details: 320 g/ha, 3 weeks after application
# In short: (§4)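 Leaf-applied emulsion, water-diluted to a preset herbicide dose, on two-week-old seedlings raised in a 25° C. to 30° C. greenhouse; injury rated at 3 weeks using earlier criteria.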
# Apera spica-venti = test: Test Example 5: herbicidal effect by foliage application, plastic box (symbol L); details: 320 g/ha, 3 weeks after application
# In short: as §4
# Abutilon theophrasti = test: Test Example 5: herbicidal effect by foliage application, plastic box (symbol M); details: 320 g/ha, 3 weeks after application
# In short: as §4
# Stellaria media = test: Test Example 5: herbicidal effect by foliage application, plastic box (symbol P); details: 320 g/ha, 3 weeks after application
# In short: as §4
# Galium spurium = test: Test Example 5: herbicidal effect by foliage application, plastic box (symbol Q); details: 320 g/ha, 3 weeks after application
# In short: as §4
# wheat = test: Test Example 5: effect on crop by foliage application, plastic box (symbol e); details: 320 g/ha, 3 weeks after application
# In short: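 Diluvial soil, sterilized and boxed (21 × 13 × 7 cm), received spot-sown seed covered by about 1.5 cm soil; plants were then greenhouse-grown at 25–30° C.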
SMILES,"Herbicidal effect grade, A: Echinochloa oryzacola Vasing. [1]","Herbicidal effect grade, B: Scirpus juncoides (Scirpus juncoides)","herbicidal effect on H (Echinochloa crus-galli var. crus-galli), grade 0-5 [2]","herbicidal effect on D (Leptochloa chinensis), grade 0-5 (Leptochloa chinensis)","herbicidal effect on E, grade 0-5 (Cyperus difformis)","effect on crop b (directly sowed rice plant), grade 0-5 [3]","F: Digitaria ciliaris, herbicidal effect grade (Digitaria ciliaris)","J: Alopecurus myosuroides, herbicidal effect grade (Alopecurus myosuroides [4])","c: corn, effect grade on crop (corn)","g: rapeseed, effect grade on crop (rapeseed)","J: Alopecurus myosuroides, herbicidal effect (criteria 0-5) (Alopecurus myosuroides [5])","L: Apera spica-venti, herbicidal effect (criteria 0-5) (Apera spica-venti)","M: Abutilon theophrasti, herbicidal effect (criteria 0-5) (Abutilon theophrasti)","P: Stellaria media, herbicidal effect (criteria 0-5) (Stellaria media)","Q: Galium spurium, herbicidal effect (criteria 0-5) (Galium spurium)","e: wheat, effect on crop (criteria 0-5) (wheat)"
CON=C(CC1CC(O)=C(c2c(C)cc(C)cc2C)C1=O)C1CCCC1 (stereo not shown) [1-078],5 (Herbicidal ratio of 90% or more (almost completely withered)),2 (Herbicidal ratio of 20% or higher and lower than 40%),5 (Herbicidal ratio of 90% or more (almost completely withered)),4 (Herbicidal ratio of 70% or higher and lower than 90%),0 (Herbicidal ratio of 5% or lower (almost no effect)),5 (Herbicidal ratio of 90% or more (almost completely withered)),5 (Herbicidal ratio of 90% or more (almost completely withered)),3 (Herbicidal ratio of 40% or higher and lower than 70%),4 (Herbicidal ratio of 70% or higher and lower than 90%),1 (Herbicidal ratio of 5% or higher and lower than 20%),4 (Herbicidal ratio of 70% or higher and lower than 90%),3 (Herbicidal ratio of 40% or higher and lower than 70%),0 (Herbicidal ratio of 5% or lower (almost no effect)),0 (Herbicidal ratio of 5% or lower (almost no effect)),0 (Herbicidal ratio of 5% or lower (almost no effect)),0 (Herbicidal ratio of 5% or lower (almost no effect))
CON=C(C)CC1CC(OC(=O)COc2ccc(Br)cc2)=C(c2c(C)cc(C)cc2C)C1=O (stereo not shown) [1-081],5 (Herbicidal ratio of 90% or more (almost completely withered)),5 (Herbicidal ratio of 90% or more (almost completely withered)),5 (Herbicidal ratio of 90% or more (almost completely withered)),5 (Herbicidal ratio of 90% or more (almost completely withered)),5 (Herbicidal ratio of 90% or more (almost completely withered)),5 (Herbicidal ratio of 90% or more (almost completely withered)),5 (Herbicidal ratio of 90% or more (almost completely withered)),5 (Herbicidal ratio of 90% or more (almost completely withered)),4 (Herbicidal ratio of 70% or higher and lower than 90%),4 (Herbicidal ratio of 70% or higher and lower than 90%),5 (Herbicidal ratio of 90% or more (almost completely withered)),5 (Herbicidal ratio of 90% or more (almost completely withered)),4 (Herbicidal ratio of 70% or higher and lower than 90%),0 (Herbicidal ratio of 5% or lower (almost no effect)),0 (Herbicidal ratio of 5% or lower (almost no effect)),4 (Herbicidal ratio of 70% or higher and lower than 90%)
CON=C(C)CC1CC(OC(=O)COc2ccc(I)cc2)=C(c2c(C)cc(C)cc2C)C1=O (stereo not shown) [1-082],5 (Herbicidal ratio of 90% or more (almost completely withered)),5 (Herbicidal ratio of 90% or more (almost completely withered)),5 (Herbicidal ratio of 90% or more (almost completely withered)),5 (Herbicidal ratio of 90% or more (almost completely withered)),5 (Herbicidal ratio of 90% or more (almost completely withered)),5 (Herbicidal ratio of 90% or more (almost completely withered)),5 (Herbicidal ratio of 90% or more (almost completely withered)),5 (Herbicidal ratio of 90% or more (almost completely withered)),4 (Herbicidal ratio of 70% or higher and lower than 90%),4 (Herbicidal ratio of 70% or higher and lower than 90%),5 (Herbicidal ratio of 90% or more (almost completely withered)),5 (Herbicidal ratio of 90% or more (almost completely withered)),4 (Herbicidal ratio of 70% or higher and lower than 90%),0 (Herbicidal ratio of 5% or lower (almost no effect)),0 (Herbicidal ratio of 5% or lower (almost no effect)),5 (Herbicidal ratio of 90% or more (almost completely withered))
CON=C(C)CC1CC(OC(=O)COc2ccc3ccccc3c2)=C(c2c(C)cc(C)cc2C)C1=O (stereo not shown) [1-083],5 (Herbicidal ratio of 90% or more (almost completely withered)),4 (Herbicidal ratio of 70% or higher and lower than 90%),5 (Herbicidal ratio of 90% or more (almost completely withered)),5 (Herbicidal ratio of 90% or more (almost completely withered)),5 (Herbicidal ratio of 90% or more (almost completely withered)),3 (Herbicidal ratio of 40% or higher and lower than 70%),5 (Herbicidal ratio of 90% or more (almost completely withered)),5 (Herbicidal ratio of 90% or more (almost completely withered)),4 (Herbicidal ratio of 70% or higher and lower than 90%),4 (Herbicidal ratio of 70% or higher and lower than 90%),5 (Herbicidal ratio of 90% or more (almost completely withered)),5 (Herbicidal ratio of 90% or more (almost completely withered)),4 (Herbicidal ratio of 70% or higher and lower than 90%),4 (Herbicidal ratio of 70% or higher and lower than 90%),0 (Herbicidal ratio of 5% or lower (almost no effect)),5 (Herbicidal ratio of 90% or more (almost completely withered))
